For data set [1], the system named is NGF-dependent PC12 cell differentiation. Description: PC12 NGF-dependent neurite outgrowth. It counts as cell-based. As to conditions: 500 pM NGF; for IC50: read-out: IC50 PC12 neurite outgrowth, 72 h, 100 μmol/L to 31.6 nmol/L, n = 3.
Data set [2] concerns PC12 cells. Description: PC12 toxicity assay. It counts as cell-based. As to conditions: 100 μmol/L, 72 h, absence of NGF.
In data set [3] the target is immobilized TrkA (Homo sapiens, UniProt P04629). Description: SPR binding to immobilized TrkA. A general note: In SPR one partner is held on a chip, and binding of the other changes the refractive index at the surface.
Sequence of immobilized TrkA (P04629 33-796): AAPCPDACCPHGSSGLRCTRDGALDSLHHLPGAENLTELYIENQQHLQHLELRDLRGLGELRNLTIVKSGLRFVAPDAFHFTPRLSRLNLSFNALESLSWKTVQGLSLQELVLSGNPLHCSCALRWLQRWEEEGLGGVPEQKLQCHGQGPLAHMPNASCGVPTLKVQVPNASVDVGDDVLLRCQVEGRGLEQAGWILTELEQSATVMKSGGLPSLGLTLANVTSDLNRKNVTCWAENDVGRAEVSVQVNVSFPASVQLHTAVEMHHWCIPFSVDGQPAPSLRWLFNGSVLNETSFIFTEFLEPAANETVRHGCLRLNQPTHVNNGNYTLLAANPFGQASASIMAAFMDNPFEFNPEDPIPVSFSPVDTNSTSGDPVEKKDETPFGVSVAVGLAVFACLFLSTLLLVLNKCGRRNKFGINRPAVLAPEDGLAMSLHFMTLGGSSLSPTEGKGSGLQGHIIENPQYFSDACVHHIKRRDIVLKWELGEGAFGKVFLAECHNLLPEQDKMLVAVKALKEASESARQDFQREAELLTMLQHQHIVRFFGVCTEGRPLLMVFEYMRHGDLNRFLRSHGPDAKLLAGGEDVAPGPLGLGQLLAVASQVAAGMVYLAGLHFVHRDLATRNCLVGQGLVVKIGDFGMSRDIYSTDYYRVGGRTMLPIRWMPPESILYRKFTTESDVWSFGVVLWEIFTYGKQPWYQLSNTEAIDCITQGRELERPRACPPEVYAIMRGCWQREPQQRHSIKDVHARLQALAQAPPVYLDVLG
For data set [4], the target named is Mouse NGF (Mus musculus, UniProt P01139). Description: SPR binding affinity of analogs to immobilized NGF. The note with it: read-out: KD, binding affinity to immobilized NGF, two-site steady-state analysis, 0.70-200 μmol/L, 25 °C, mean of triplicate.
Sequence of Mouse NGF (P01139 122-241): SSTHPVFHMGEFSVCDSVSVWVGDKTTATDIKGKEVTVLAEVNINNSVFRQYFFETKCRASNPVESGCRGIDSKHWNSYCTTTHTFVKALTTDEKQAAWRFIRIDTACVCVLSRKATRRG

Entries after “also recorded” stand apart in the source; their conditions may differ.

Consider three molecules from publication PMC5625151 (Pharmacology Research & Perspectives, 2017).

The term IC50 denotes the concentration at which inhibition is half-maximal.

On to `O=C(O)c1ccc(Cl)c(N2C(=O)c3ccc4c(=O)n5c6ccc([N+](=O)[O-])cc6nc5c5ccc(c3c45)C2=O)c1` [BVNP‐0197, 4‐Chloro‐3‐{6‐nitro‐11,16,18‐trioxo‐3,10,17‐triazahexacyclo[13.6.2.0^2,^10.0^4,^9.0^12,^22.0^19,^23]tricosa‐1(21),2,4,6,8,12,14,19,22‐nonaen‐17‐yl}benzoic acid], for which, in data set [1] (increasing concentrations 0-100 μmol/L), the “NGF-mediated PC12 cell process formation” value is “significantly decreased”. Moreover, the “PC12 cell count and morphology versus control” value in data set [2] is on record as “did not significantly differ from untreated cells”.
Take `Cn1c2ccc(NC(=O)c3ccccc3)cc2c(=O)n2nc(C(=O)O)cc12` [PD 90780, 7‐(benzolylamino)‐4,9‐dihydro‐4‐methyl‐9‐oxo‐pyrazolo[5,1‐b]quinazoline‐2‐carboxylic acid]: the IC50 in data set [1] is 33.2 µM. Moreover, the “binding to immobilized TrkA” value in data set [3] is given as “none showed binding; also recorded: do not bind to TrkA”. For the same molecule, the Kd in data set [4] came to 35.8 µM.
With `Cc1cc2nc3c(=O)[nH]c(=O)nc-3n(C)c2cc1C=O` [Ro 08‐2750], in data set [1], the IC50 was 12 µM. Moreover, the “binding to immobilized TrkA” value in data set [3] was “none showed binding; also recorded: do not bind to TrkA”. Further, the Kd in data set [4] came out at 32.4 µM.
